Assay results published in article PMC9081821 (Steroids, 2022).

What was measured:
[1] = target: T1, human GR (glucocorticoid receptor) (Homo sapiens, UniProt P04150); test: GRE-luciferase reporter transactivation in transfected COS-1 cells; format: cell-based
T1 sequence (P04150 1-777): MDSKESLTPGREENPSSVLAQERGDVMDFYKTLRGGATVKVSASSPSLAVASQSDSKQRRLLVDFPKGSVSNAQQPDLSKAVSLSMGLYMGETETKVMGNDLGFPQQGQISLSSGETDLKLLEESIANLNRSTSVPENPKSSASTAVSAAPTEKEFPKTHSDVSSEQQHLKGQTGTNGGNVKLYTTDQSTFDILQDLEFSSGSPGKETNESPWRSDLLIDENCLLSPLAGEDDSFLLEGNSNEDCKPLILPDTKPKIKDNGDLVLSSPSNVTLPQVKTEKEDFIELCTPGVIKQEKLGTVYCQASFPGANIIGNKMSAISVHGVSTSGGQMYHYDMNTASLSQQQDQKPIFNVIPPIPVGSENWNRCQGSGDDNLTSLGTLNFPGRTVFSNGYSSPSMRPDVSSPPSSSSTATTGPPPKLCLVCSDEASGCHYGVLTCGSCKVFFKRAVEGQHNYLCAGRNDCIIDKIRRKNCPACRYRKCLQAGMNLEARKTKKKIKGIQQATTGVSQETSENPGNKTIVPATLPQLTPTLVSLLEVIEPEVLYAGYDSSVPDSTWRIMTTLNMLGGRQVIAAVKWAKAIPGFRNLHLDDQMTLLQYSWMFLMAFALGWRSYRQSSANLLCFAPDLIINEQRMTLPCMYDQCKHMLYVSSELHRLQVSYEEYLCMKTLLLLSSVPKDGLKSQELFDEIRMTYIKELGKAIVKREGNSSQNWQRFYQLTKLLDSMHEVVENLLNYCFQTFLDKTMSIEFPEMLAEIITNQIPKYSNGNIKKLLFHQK

[2] = target: T1, human GR (glucocorticoid receptor); format: cell-based; details: for IC50 (M) ± SEM: 20 nM [3H]-DEX, 3 h

Row | EC50 [1] [µM] | IC50 (M) ± SEM [2] | IC50 [2] [µM] | Structure (SMILES)
1 | 0.0319 | 1.15 ± 5.2 × 10^-8 M | – | C#C[C@]1(O)CC[C@H]2[C@@H]3CCC4=CC(=O)CC[C@@H]4[C@H]3C(=C)C[C@@]21CC [etonogestrel]
2 | – | 1.35 ± 9.1 × 10^-7 M | – | C#C[C@]1(O)CC[C@H]2[C@@H]3CCC4=CC(=O)CC[C@@H]4[C@H]3CC[C@@]21CC [levonorgestrel]
3 | 0.0417 | – | 0.00558 | CC(=O)O[C@]1(C(C)=O)CC[C@H]2[C@@H]3C[C@H](C)C4=CC(=O)CC[C@]4(C)[C@H]3CC[C@@]21C [medroxyprogesterone acetate]
4 | 0.0185 | – | 0.0573 | C=C1C[C@H]2[C@@H]3CCC4=CC(=O)CC[C@@H]4[C@H]3CC[C@]2(C)[C@@]1(OC(C)=O)C(C)=O [nestorone]
